Measured values reported in US20170166558A1, “O-GLCNAC TRANSFERASE (OGT) INHIBITORS AND USES THEREOF” (President and Fellows of Harvard College, priority 2014, published 2017).

Molecular target: T1, sOGT (Homo sapiens, UniProt O15294)
T1 sequence (O15294 1-665 isoform O15294-4): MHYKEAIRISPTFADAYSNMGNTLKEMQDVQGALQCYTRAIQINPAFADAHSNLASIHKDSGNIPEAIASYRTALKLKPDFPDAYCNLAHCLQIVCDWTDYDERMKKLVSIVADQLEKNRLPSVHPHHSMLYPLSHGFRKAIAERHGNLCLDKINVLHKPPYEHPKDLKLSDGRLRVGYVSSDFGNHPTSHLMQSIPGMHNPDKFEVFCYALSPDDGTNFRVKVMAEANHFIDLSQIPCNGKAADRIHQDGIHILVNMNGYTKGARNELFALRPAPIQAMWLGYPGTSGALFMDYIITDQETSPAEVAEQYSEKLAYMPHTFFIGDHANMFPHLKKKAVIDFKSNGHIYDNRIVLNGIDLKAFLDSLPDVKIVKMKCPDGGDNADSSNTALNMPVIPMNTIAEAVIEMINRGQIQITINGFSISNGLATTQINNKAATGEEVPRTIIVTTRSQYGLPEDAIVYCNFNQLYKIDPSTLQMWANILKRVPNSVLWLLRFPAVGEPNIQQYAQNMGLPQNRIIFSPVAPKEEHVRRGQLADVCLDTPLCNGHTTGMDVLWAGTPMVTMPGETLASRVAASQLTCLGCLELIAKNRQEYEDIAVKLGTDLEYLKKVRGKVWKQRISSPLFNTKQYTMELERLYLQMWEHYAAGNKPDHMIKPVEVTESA
Test: Fluorescence polarization displacement screen with fluorescein-linked UDP-GlcNAc analog
Assay type: binding
Settings: 100 μM treatment

Structure (SMILES) | % OGT activity (100 μM treatment)
Cc1cccc(C(NS(=O)(=O)c2ccc3[nH]c(=O)ccc3c2)C(=O)N(Cc2ccco2)Cc2cccs2)c1 (stereo not shown) [drawing 135] | No inhibition
O=C(C(NS(=O)(=O)c1ccc2[nH]c(=O)ccc2c1)c1ccc(C(F)(F)F)cc1)N(Cc1ccco1)Cc1cccs1 (stereo not shown) [drawing 122] | 33%
O=C(C(NS(=O)(=O)c1ccc2[nH]c(=O)ccc2c1)c1cccc(C(F)(F)F)c1)N(Cc1ccco1)Cc1cccs1 (stereo not shown) [drawing 128] | 7.4%
O=C(C1c2ccccc2CCN1S(=O)(=O)c1ccc2[nH]c(=O)ccc2c1)N(Cc1ccco1)Cc1cccs1 (stereo not shown) [drawing 115] | 65%
O=C(C(NS(=O)(=O)c1ccc2[nH]c(=O)ccc2c1)c1cccc(C(F)(F)F)c1)N(Cc1ccco1)Cc1cccs1 (stereo not shown) [drawing 127] | 29%
Cc1cccc(C(NS(=O)(=O)c2ccc3[nH]c(=O)ccc3c2)C(=O)N(Cc2ccco2)Cc2cccs2)c1 (stereo not shown) [drawing 131] | No inhibition
O=C(C1c2ccccc2CN1S(=O)(=O)c1ccc2[nH]c(=O)ccc2c1)N(Cc1ccco1)Cc1cccs1 (stereo not shown) [drawing 114] | 43%
Cc1ccc(C(NS(=O)(=O)c2ccc3[nH]c(=O)ccc3c2)C(=O)N(Cc2ccco2)Cc2cccs2)cc1 (stereo not shown) [drawing 134] | 66%
Cc1ccc(C(NS(=O)(=O)c2ccc3[nH]c(=O)ccc3c2)C(=O)N(Cc2ccco2)Cc2cccs2)cc1 (stereo not shown) [drawing 130] | 11%
O=C(C(NS(=O)(=O)c1ccc2[nH]c(=O)ccc2c1)c1ccc(C(F)(F)F)cc1)N(Cc1ccco1)Cc1cccs1 (stereo not shown) [drawing 126] | 54%
O=C(C(NS(=O)(=O)c1ccc2[nH]c(=O)ccc2c1)c1ccccc1C(F)(F)F)N(Cc1ccco1)Cc1cccs1 (stereo not shown) [drawing 119] | 0.7%
O=C(C(NS(=O)(=O)c1ccc2[nH]c(=O)ccc2c1)c1ccccc1C(F)(F)F)N(Cc1ccco1)Cc1cccs1 (stereo not shown) [drawing 125] | 38%
O=C([C@@H](NS(=O)(=O)c1ccc2[nH]c(=O)[nH]c(=O)c2c1)c1ccccc1)N(Cc1ccco1)Cc1cccs1 | No inhibition
O=C(C(NS(=O)(=O)c1ccc2[nH]c(=O)ccc2c1)c1ccccc1C(F)(F)F)N(Cc1ccco1)Cc1cccs1 (stereo not shown) [drawing 121] | 11%

The remaining lines, values ahead:

% OGT activity (100 μM treatment) | Structure (SMILES)
10% | Cc1ccccc1C(NS(=O)(=O)c1ccc2[nH]c(=O)ccc2c1)C(=O)N(Cc1ccco1)Cc1cccs1 (stereo not shown) [drawing 136]
24% | O=C(C(NS(=O)(=O)c1ccc2[nH]c(=O)ccc2c1)c1ccccc1F)N(Cc1ccco1)Cc1cccs1 (stereo not shown) [drawing 133]
No inhibition | O=C(NCc1cccs1)[C@H](NS(=O)(=O)c1ccc2[nH]c(=O)ccc2c1)c1ccccc1
4.5% | Cc1ccccc1C(NS(=O)(=O)c1ccc2[nH]c(=O)ccc2c1)C(=O)N(Cc1ccco1)Cc1cccs1 (stereo not shown) [drawing 132]
0.5% | O=C(C(NS(=O)(=O)c1ccc2[nH]c(=O)ccc2c1)c1ccccc1F)N(Cc1ccco1)Cc1cccs1 (stereo not shown) [drawing 129]

Same assay, conditions: 100 μM treatment; read-out: % OGT activity (100 μM treatment)

Structure (SMILES) | remaining activity at 100 µM
O=C(C1c2ccccc2CN1S(=O)(=O)c1ccc2[nH]c(=O)ccc2c1)N(Cc1ccco1)Cc1cccs1 (stereo not shown) [drawing 109] | 56%
O=C([C@H](NS(=O)(=O)c1ccc2[nH]c(=O)ccc2c1)c1cccc(F)c1)N(Cc1ccco1)Cc1cccs1 | 2.6%
O=C([C@H](NS(=O)(=O)c1ccc2[nH]c(=O)ccc2c1)C1CCCCC1)N(Cc1ccco1)Cc1cccs1 | 22%
O=C([C@@H](NS(=O)(=O)c1ccc2[nH]c(=O)ccc2c1)c1ccc(F)cc1)N(Cc1ccco1)Cc1cccs1 | 0.9%
O=C([C@H](NS(=O)(=O)c1ccc2[nH]c(=O)ccc2c1)c1ccc(O)cc1)N(Cc1ccco1)Cc1cccs1 | 0.7%
O=C([C@H](NS(=O)(=O)c1ccc2[nH]c(=O)ccc2c1)c1ccc(F)cc1)N(Cc1ccco1)Cc1cccs1 | 5%
O=C([C@H](NS(=O)(=O)c1ccc2[nH]c(=O)ccc2c1)c1ccc(Cl)cc1)N(Cc1ccco1)Cc1cccs1 | 22%
O=C([C@H](NS(=O)(=O)c1ccc2[nH]c(=O)ccc2c1)c1cccs1)N(Cc1ccco1)Cc1cccs1 | 7%
COc1ccc([C@@H](NS(=O)(=O)c2ccc3[nH]c(=O)ccc3c2)C(=O)N(Cc2ccco2)Cc2cccs2)cc1 | 2.9%
O=C([C@H](NS(=O)(=O)c1ccc2[nH]c(=O)[nH]c(=O)c2c1)c1ccccc1)N(Cc1ccco1)Cc1cccs1 | 68%
CCCC[C@@H](NS(=O)(=O)c1ccc2[nH]c(=O)ccc2c1)C(=O)N(Cc1ccco1)Cc1cccs1 | 8%
O=C(C1c2ccccc2CCN1S(=O)(=O)c1ccc2[nH]c(=O)ccc2c1)N(Cc1ccco1)Cc1cccs1 (stereo not shown) [drawing 110] | 47%
COc1cccc([C@@H](NS(=O)(=O)c2ccc3[nH]c(=O)ccc3c2)C(=O)N(Cc2ccco2)Cc2cccs2)c1 | 2.5%
CN1CCN(C(=O)[C@H](NS(=O)(=O)c2ccc3[nH]c(=O)ccc3c2)c2ccccc2)CC1 | 47%
O=C([C@H](NS(=O)(=O)c1ccc2[nH]c(=O)ccc2c1)c1ccccc1)N1CCCCC1 | 22%

The next lines start with the values.

remaining activity at 100 µM | Structure (SMILES)
26% | CCNC(=O)[C@H](NS(=O)(=O)c1ccc2[nH]c(=O)ccc2c1)c1ccccc1
47% | O=C([C@H](NS(=O)(=O)c1ccc2[nH]c(=O)ccc2c1)c1ccccc1)N1CCOCC1
53% | O=C([C@@H](Cc1ccccc1)NS(=O)(=O)c1ccc2[nH]c(=O)ccc2c1)N(Cc1ccco1)Cc1cccs1 [drawing 149]
64% | O=C(NCc1ccco1)[C@H](NS(=O)(=O)c1ccc2[nH]c(=O)ccc2c1)c1ccccc1
2.5% | CN(Cc1cccs1)C(=O)[C@H](NS(=O)(=O)c1ccc2[nH]c(=O)ccc2c1)c1ccccc1
5% | CN(Cc1ccco1)C(=O)[C@H](NS(=O)(=O)c1ccc2[nH]c(=O)ccc2c1)c1ccccc1
4% | O=C([C@H](NS(=O)(=O)c1ccc2[nH]c(=O)ccc2c1)c1ccccc1Cl)N(Cc1ccco1)Cc1cccs1

Same assay, conditions: read-out: % OGT activity (100 μM treatment)

Structure (SMILES) | remaining activity at 100 µM
O=C([C@@H](NS(=O)(=O)c1ccc2[nH]c(=O)ccc2c1)c1ccccc1)N(Cc1ccco1)Cc1cccs1 | 7%
O=C([C@H](NS(=O)(=O)c1ccc2[nH]c(=O)ccc2c1)c1ccccc1)N(Cc1ccco1)Cc1cccs1 | 1.73%
